Experimental data as given in patent US6479435B1, “Diaryl ethers and processes for their preparation and herbicidal and desiccant compositions containing them” (ISK Americas Incorporated, priority 1997, dated 2002).

Tests used:
Type in all cases: in vivo
[1] = test system: field corn (Zea mays L., var. Dekalb 535, CORN); assay: Post-emerge greenhouse test, crop damage rating; settings: 14 days after application
In short: (§1)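 Plants at the 2-3 leaf stage, sown 8-21 days earlier, were track-sprayed post-emergence with compound in acetone plus 0.25% v/v non-ionic surfactant at 63-1000 g ai/ha (187 l/ha). Damage was rated at 14 days on a 0-100 scale (0 none, 100 all plants dead), for both crop injury and weed control.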

[2] = test system: upland rice (Oryza sp., var.Tebonnet, RICE); assay: Post-emerge greenhouse test, crop damage rating; settings: 14 days after application
In short: as §1

[3] = test system: Johnsongrass (Sorghum halepense, SORHA); assay: Post-emerge greenhouse herbicide test, phytotoxicity rating; settings: 14 days after application
In short: as §1

[4] = test system: barnyardgrass (Echinochloa crusgalli, ECHCG); assay: as above; settings: 14 days after application
In short: as §1

[5] = test system: green foxtail (Setaria viridis, SETVI); assay: as above; settings: 14 days after application
In short: as §1

[6] = test system: redroot pigweed (Amaranthus retroflexus, AMARE); assay: as above; settings: 14 days after application
In short: as §1

[7] = test system: large crabgrass (Digitaria sanguinalis, DIGSA); assay: as above; settings: 14 days after application
In short: as §1

[8] = test system: velvetleaf (Abutilon theophrasti, ABUTH); assay: as above; settings: 14 days after application
In short: as §1

[9] = test system: lambsquarters (Chenopodium album, CHEAL); assay: as above; settings: 14 days after application
In short: as §1

[10] = test system: ivyleaf morningglory (Ipomoea hederacea, IPOHE); assay: as above; settings: 14 days after application
In short: as §1

[11] = test system: field corn (Zea mays L., var. Dekalb 535, CORN); assay: Pre-emerge greenhouse test, crop damage rating; settings: 14 days after application, rating scale 0-100
In short: (§2)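 Seeds sown in sandy loam one day before track-sprayer application of acetone solutions at 125–1000 g ai/ha (187 l/ha), then surface-watered to incorporate and bottom-watered. Injury scored visually at 14 days on a 0–100 scale (0 no damage, 100 complete death).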

[12] = test system: upland rice (Oryza sp., var.Tebonnet, RICE); assay: Pre-emerge greenhouse test, crop damage rating; settings: 14 days after application, rating scale 0-100
In short: as §2

[13] = test system: soybean (Glycine max L., var. Pella 86, SOY); assay: Pre-emerge greenhouse test, crop damage rating; settings: 14 days after application, rating scale 0-100
In short: as §2

[14] = test system: Johnsongrass (Sorghum halepense, SORHA); assay: Pre-emerge greenhouse herbicide test, phytotoxicity rating; settings: 14 days after application, rating scale 0-100
In short: as §2

[15] = test system: sicklepod (Cassia obtusifolia, CASOB); assay: as above; settings: 14 days after application, rating scale 0-100
In short: as §2

[16] = test system: barnyardgrass (Echinochloa crusgalli, ECHCG); assay: as above; settings: 14 days after application, rating scale 0-100
In short: as §2

[17] = test system: green foxtail (Setaria viridis, SETVI); assay: as above; settings: 14 days after application, rating scale 0-100
In short: as §2

[18] = test system: redroot pigweed (Amaranthus retroflexus, AMARE); assay: as above; settings: 14 days after application, rating scale 0-100
In short: as §2

[19] = test system: large crabgrass (Digitaria sanguinalis, DIGSA); assay: as above; settings: 14 days after application, rating scale 0-100
In short: as §2

[20] = test system: velvetleaf (Abutilon theophrasti, ABUTH); assay: as above; settings: 14 days after application, rating scale 0-100
In short: as §2

[21] = test system: lambsquarters (Chenopodium album, CHEAL); assay: as above; settings: 14 days after application, rating scale 0-100
In short: as §2

[22] = test system: ivyleaf morningglory (Ipomoea hederacea, IPOHE); assay: as above; settings: 14 days after application, rating scale 0-100
In short: as §2

[23] = test system: common ragweed (Ambrosia artemisiifolia L., AMBEL); assay: as above; settings: 14 days after application, rating scale 0-100
In short: as §2

[24] = test system: soybean (Glycine max L., var. Pella 86, SOY); assay: Post-emerge greenhouse test, crop damage rating; settings: 14 days after application
In short: as §1

[25] = test system: common ragweed (Ambrosia artemisiifolia L., AMBEL); assay: Post-emerge greenhouse herbicide test, phytotoxicity rating; settings: 14 days after application
In short: as §1

## N#Cc1ccccc1Oc1cc(-n2c(=O)n3n(c2=S)CCCC3)c(F)cc1Cl [Compound 8-7]
[1]; 63 g al/ha
  CORN crop damage rating (0-100): 20
[1]; 500 g al/ha
  CORN crop damage rating (0-100): 0
[2]; 63 g al/ha
  RICE crop damage rating (0-100): 10
[2]; 500 g al/ha
  RICE crop damage rating (0-100): 50
[3]; 63 g al/ha
  SORHA phytotoxicity rating (0-100): 0
[3]; 500 g al/ha
  SORHA phytotoxicity rating (0-100): 70
[4]; 63 g al/ha
  ECHCG phytotoxicity rating (0-100): 0
[4]; 500 g al/ha
  ECHCG phytotoxicity rating (0-100): 20
[5]; 63 g al/ha
  SETVI phytotoxicity rating (0-100): 0
[5]; 500 g al/ha
  SETVI phytotoxicity rating (0-100): 0
[6]; 63 g al/ha
  AMARE phytotoxicity rating (0-100): 100
[6]; 500 g al/ha
  AMARE phytotoxicity rating (0-100): 100
[7]; 63 g al/ha
  DIGSA phytotoxicity rating (0-100): 0
[7]; 500 g al/ha
  DIGSA phytotoxicity rating (0-100): 50
[8]; 63 g al/ha
  ABUTH phytotoxicity rating (0-100): 100
[8]; 500 g al/ha
  ABUTH phytotoxicity rating (0-100): 100
[9]; 63 g al/ha
  CHEAL phytotoxicity rating (0-100): 90
[9]; 500 g al/ha
  CHEAL phytotoxicity rating (0-100): 100
[10]; 63 g al/ha
  IPOHE phytotoxicity rating (0-100): 100
[10]; 500 g al/ha
  IPOHE phytotoxicity rating (0-100): 100
[11]; 125 g ai/ha
  crop damage rating CORN: 0
[11]; 500 g ai/ha
  crop damage rating CORN: 10
[12]; 125 g ai/ha
  crop damage rating RICE: 20
[12]; 500 g ai/ha
  crop damage rating RICE: 50
[13]; 125 g ai/ha
  crop damage rating SOY: 0
[13]; 500 g ai/ha
  crop damage rating SOY: 20
[14]; 125 g ai/ha
  phytotoxicity rating SORHA: 20
[14]; 500 g ai/ha
  phytotoxicity rating SORHA: 70
[15]; 125 g ai/ha
  phytotoxicity rating CASOB: 70
[15]; 500 g ai/ha
  phytotoxicity rating CASOB: 100
[16]; 125 g ai/ha
  phytotoxicity rating ECHCG: 100
[16]; 500 g ai/ha
  phytotoxicity rating ECHCG: 100
[17]; 125 g ai/ha
  phytotoxicity rating SETVI: 70
[17]; 500 g ai/ha
  phytotoxicity rating SETVI: 90
[18]; 125 g ai/ha
  phytotoxicity rating AMARE: 90
[18]; 500 g ai/ha
  phytotoxicity rating AMARE: 100
[19]; 125 g ai/ha
  phytotoxicity rating DIGSA: 60
[19]; 500 g ai/ha
  phytotoxicity rating DIGSA: 99
[20]; 125 g ai/ha
  phytotoxicity rating ABUTH: 100
[20]; 500 g ai/ha
  phytotoxicity rating ABUTH: 100
[21]; 125 g ai/ha
  phytotoxicity rating CHEAL: 100
[21]; 500 g ai/ha
  phytotoxicity rating CHEAL: 100
[22]; 125 g ai/ha
  phytotoxicity rating IPOHE: 30
[22]; 500 g ai/ha
  phytotoxicity rating IPOHE: 100
[23]; 125 g ai/ha
  phytotoxicity rating AMBEL: 70
[23]; 500 g ai/ha
  phytotoxicity rating AMBEL: 100
[24]; 63 g al/ha
  SOY crop damage rating (0-100): 20
[24]; 500 g al/ha
  SOY crop damage rating (0-100): 70
[25]; 63 g al/ha
  AMBEL phytotoxicity rating (0-100): 60
[25]; 500 g al/ha
  AMBEL phytotoxicity rating (0-100): 80

## CCOC(=O)C(C)Oc1ccc(Oc2cc(-n3c(=O)n4n(c3=S)CCCC4)c(F)cc2Cl)cc1 (stereo not shown) [Compound 8-11]
[1]; 63 g al/ha
  CORN crop damage rating (0-100): 20
[1]; 500 g al/ha
  CORN crop damage rating (0-100): 95
[2]; 63 g al/ha
  RICE crop damage rating (0-100): 40
[2]; 500 g al/ha
  RICE crop damage rating (0-100): 50
[3]; 63 g al/ha
  SORHA phytotoxicity rating (0-100): 90
[3]; 500 g al/ha
  SORHA phytotoxicity rating (0-100): 99
[4]; 63 g al/ha
  ECHCG phytotoxicity rating (0-100): 100
[4]; 500 g al/ha
  ECHCG phytotoxicity rating (0-100): 100
[5]; 63 g al/ha
  SETVI phytotoxicity rating (0-100): 30
[5]; 500 g al/ha
  SETVI phytotoxicity rating (0-100): 60
[6]; 63 g al/ha
  AMARE phytotoxicity rating (0-100): 100
[6]; 500 g al/ha
  AMARE phytotoxicity rating (0-100): 100
[7]; 63 g al/ha
  DIGSA phytotoxicity rating (0-100): 50
[7]; 500 g al/ha
  DIGSA phytotoxicity rating (0-100): 90
[8]; 63 g al/ha
  ABUTH phytotoxicity rating (0-100): 100
[8]; 500 g al/ha
  ABUTH phytotoxicity rating (0-100): 100
[9]; 63 g al/ha
  CHEAL phytotoxicity rating (0-100): 100
[9]; 500 g al/ha
  CHEAL phytotoxicity rating (0-100): 100
[10]; 63 g al/ha
  IPOHE phytotoxicity rating (0-100): 100
[10]; 500 g al/ha
  IPOHE phytotoxicity rating (0-100): 100
[11]; 125 g ai/ha
  crop damage rating CORN: 0
[11]; 500 g ai/ha
  crop damage rating CORN: 0
[12]; 125 g ai/ha
  crop damage rating RICE: 50
[12]; 500 g ai/ha
  crop damage rating RICE: 80
[13]; 125 g ai/ha
  crop damage rating SOY: 20
[13]; 500 g ai/ha
  crop damage rating SOY: 30
[14]; 125 g ai/ha
  phytotoxicity rating SORHA: 70
[14]; 500 g ai/ha
  phytotoxicity rating SORHA: 40
[15]; 125 g ai/ha
  phytotoxicity rating CASOB: 70
[15]; 500 g ai/ha
  phytotoxicity rating CASOB: 60
[16]; 125 g ai/ha
  phytotoxicity rating ECHCG: 60
[16]; 500 g ai/ha
  phytotoxicity rating ECHCG: 70
[17]; 125 g ai/ha
  phytotoxicity rating SETVI: 90
[17]; 500 g ai/ha
  phytotoxicity rating SETVI: 100
[18]; 125 g ai/ha
  phytotoxicity rating AMARE: 100
[18]; 500 g ai/ha
  phytotoxicity rating AMARE: 100
[19]; 125 g ai/ha
  phytotoxicity rating DIGSA: 20
[19]; 500 g ai/ha
  phytotoxicity rating DIGSA: 80
[20]; 125 g ai/ha
  phytotoxicity rating ABUTH: 100
[20]; 500 g ai/ha
  phytotoxicity rating ABUTH: 100
[21]; 125 g ai/ha
  phytotoxicity rating CHEAL: 100
[21]; 500 g ai/ha
  phytotoxicity rating CHEAL: 100
[22]; 125 g ai/ha
  phytotoxicity rating IPOHE: 70
[22]; 500 g ai/ha
  phytotoxicity rating IPOHE: 100
[23]; 125 g ai/ha
  phytotoxicity rating AMBEL: 95
[23]; 500 g ai/ha
  phytotoxicity rating AMBEL: 100
[24]; 63 g al/ha
  SOY crop damage rating (0-100): 90
[24]; 500 g al/ha
  SOY crop damage rating (0-100): 100
[25]; 63 g al/ha
  AMBEL phytotoxicity rating (0-100): 100
[25]; 500 g al/ha
  AMBEL phytotoxicity rating (0-100): 100
